≈ marks a conversion by molar mass, not a printed value. Like-named read-outs stand apart in the source and are kept apart here.
Tests used:
Format in all cases: cell-based
[1] = system: Botrtyis cinerea (Bc); test: In vitro pathogen growth inhibition assay, Bc; conditions: 48 h
In short: (§1)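 Spores in 17% V8 liquid medium, or 1.5 mm Rs mycelial plugs in ¼ PDB, incubated with compound; final concentration checked by OD600 for precipitation. OD readings at 24 and 48 h, blank-subtracted, plus visual ratings; value is concentration giving ≥90% growth inhibition.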

[2] = system: Diplodia maydis (Dm); test: In vitro pathogen growth inhibition assay, Dm; conditions: Stenocarpella maydis, 48 h
In short: (§2)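 Value reported is the compound concentration reaching ≥90% growth inhibition, from OD readings at 24 and 48 h after blank subtraction, confirmed visually. Inoculum was spores diluted in 17% V8 medium, except Rs, using 1.5 mm mycelial plugs in ¼ PDB; actual compound concentration corrected via OD600.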

[3] = system: Fusarium moniliforme (Fm); test: In vitro pathogen growth inhibition assay, Fm; conditions: Fusarium verticillioides
In short: as §1

[4] = system: Septoria tritici (St); test: In vitro pathogen growth inhibition assay, St; conditions: Zymoseptoria tritici, 48 h
In short: as §1

[5] = system: Rhizoctonia solani (Rs); test: In vitro pathogen growth inhibition assay, Rs (mycelial plugs); conditions: Rhizoctonia solani, 48 h
In short: as §2

[6] = system: Collectotrichum graminicola (Cg); test: In vitro pathogen growth inhibition assay, Cg; conditions: 48 h
In short: as §1

[7] = system: Fusarium virguliforme (Fv); test: In vitro pathogen growth inhibition assay, Fv
In short: as §2

[8] = system: Phytophthora capsici (Pc); test: In vitro pathogen growth inhibition assay, Pc; conditions: 48 h
In short: as §2

[9] = ≥90% inhibition, 48 hours vs 2% DMSO control, read-out: Compound Concentration (ppm) sufficient for ≥90% inhibition of growth, Bc
[10] = ≥90% inhibition, 48 hours vs 2% DMSO control, read-out: Compound Concentration (ppm) sufficient for ≥90% inhibition of growth, Dm
[11] = ≥90% inhibition, 48 hours vs 2% DMSO control, read-out: Compound Concentration (ppm) sufficient for ≥90% inhibition of growth, Fm
[12] = ≥90% inhibition, 48 hours vs 2% DMSO control, read-out: Compound Concentration (ppm) sufficient for ≥90% inhibition of growth, St
[13] = ≥90% inhibition, mycelial plugs, 48 hours vs 2% DMSO control, read-out: Compound Concentration (ppm) sufficient for ≥90% inhibition of growth, Rs
[14] = ≥90% inhibition, 48 hours vs 2% DMSO control, read-out: Compound Concentration (ppm) sufficient for ≥90% inhibition of growth, Cg
[15] = ≥90% inhibition, 48 hours vs 2% DMSO control, read-out: Compound Concentration (ppm) sufficient for ≥90% inhibition of growth, Fv
[16] = ≥90% inhibition, 48 hours vs 2% DMSO control, read-out: Compound Concentration (ppm) sufficient for ≥90% inhibition of growth, Pc
[17] = ≥90% growth inhibition, 48 hours, vs 2% DMSO control, read-out: Compound Concentration (ppm) sufficient for ≥90% inhibition of Bc
[18] = ≥90% growth inhibition, 48 hours, vs 2% DMSO control, read-out: Compound Concentration (ppm) sufficient for ≥90% inhibition of Dm
[19] = ≥90% growth inhibition, 48 hours, vs 2% DMSO control, read-out: Compound Concentration (ppm) sufficient for ≥90% inhibition of Fm
[20] = ≥90% growth inhibition, 48 hours, vs 2% DMSO control, read-out: Compound Concentration (ppm) sufficient for ≥90% inhibition of St
[21] = ≥90% growth inhibition, mycelial plugs, 48 hours, vs 2% DMSO control, read-out: Compound Concentration (ppm) sufficient for ≥90% inhibition of Rs
[22] = ≥90% growth inhibition, 48 hours, vs 2% DMSO control, read-out: Compound Concentration (ppm) sufficient for ≥90% inhibition of Cg
[23] = ≥90% growth inhibition, 48 hours, vs 2% DMSO control, read-out: Compound Concentration (ppm) sufficient for ≥90% inhibition of Fv
[24] = ≥90% growth inhibition, 48 hours, vs 2% DMSO control, read-out: Compound Concentration (ppm) sufficient for ≥90% inhibition of Pc

Compound | IC90 [1, 9] | IC90 [2, 10] | IC90 [3, 11] | IC90 [4, 12] | IC90 [5, 13] | IC90 [6, 14] | IC90 [7, 15] | IC90 [8, 16] | IC90 [1, 17] | IC90 [2, 18] | IC90 [3, 19] | IC90 [4, 20] | IC90 [5, 21] | IC90 [6, 22] | IC90 [7, 23] | IC90 [8, 24] | further results
COc1ccc(F)cc1[C@H](Cn1c(=O)n([C@H](C)C(=O)NC(C)C)c(=O)c2c(C)c(-n3nccn3)sc21)OCCO [Compound I-097] | 0.4 mg/L (≈ 0.696 µM) | ≥ 2 mg/L | 0.08 mg/L (≈ 0.139 µM) | > 50 mg/L | 2 mg/L (≈ 3.48 µM) | 50 mg/L (≈ 87 µM) | 2 mg/L (≈ 3.48 µM) | > 50 mg/L | – | – | – | – | – | – | – | – | –
COc1ccc(F)cc1[C@H](Cn1c(=O)n(C(C)(C)C(=O)N2CCCC2)c(=O)c2c(C)c(-n3nccn3)sc21)OCCO [Compound I-130] | 2 mg/L (≈ 3.33 µM) | ≥ 2 mg/L | 0.4 mg/L (≈ 0.666 µM) | ≥ 50 mg/L | ≥ 2 mg/L | 2 mg/L (≈ 3.33 µM) | ≥ 0.4 mg/L | 50 mg/L (≈ 83.2 µM) | – | – | – | – | – | – | – | – | –
CCOC(=O)c1sc2c(c1C)c(=O)n(C(C)(C)C(=O)N1CCCC1)c(=O)n2C[C@H](O)c1cc(F)ccc1OC [Compound I-224] | – | – | – | – | – | – | – | – | 2 mg/L (≈ 3.56 µM) | > 50 mg/L | 2 mg/L (≈ 3.56 µM) | > 50 mg/L | 0.08 mg/L (≈ 0.142 µM) | 10 mg/L (≈ 17.8 µM) | 2 mg/L (≈ 3.56 µM) | > 50 mg/L | –
COc1ccc(F)cc1[C@H](Cn1c(=O)n(CC(=O)N2CCCC2)c(=O)c2c(C)c(-n3nccn3)sc21)OC(C)C [Compound I-059] | 0.08 mg/L (≈ 0.14 µM) | 0.4 mg/L (≈ 0.701 µM) | 0.08 mg/L (≈ 0.14 µM) | 10 mg/L (≈ 17.5 µM) | 0.4 mg/L (≈ 0.701 µM) | 0.4 mg/L (≈ 0.701 µM) | ≥ 0.08 mg/L | > 50 mg/L | – | – | – | – | – | – | – | – | –
COc1ccc(F)cc1[C@H](Cn1c(=O)n(C(C)(C)C(=O)N2CCCC2)c(=O)c2c(C)c(-n3nccn3)sc21)OC1CCOCC1 [Compound I-037] | ≥ 0.4 mg/L | ≥ 0.08 mg/L | 0.08 mg/L (≈ 0.125 µM) | ≥ 2 mg/L | 0.08 mg/L (≈ 0.125 µM) | ≥ 0.08 mg/L | 0.4 mg/L (≈ 0.624 µM) | 10 mg/L (≈ 15.6 µM) | – | – | – | – | – | – | – | – | –
COCCO[C@@H](Cn1c(=O)n(C(C)(C)C(=O)NC2CCC2)c(=O)c2c(C)c(-n3cccn3)sc21)c1cc(F)ccc1OC [Compound I-299] | – | – | – | – | – | – | – | – | 2 mg/L (≈ 3.26 µM) | 50 mg/L (≈ 81.5 µM) | 0.4 mg/L (≈ 0.652 µM) | > 50 mg/L | 50 mg/L (≈ 81.5 µM) | 10 mg/L (≈ 16.3 µM) | 2 mg/L (≈ 3.26 µM) | > 50 mg/L | –
COc1ccc(F)cc1[C@H](Cn1c(=O)n(C(C)(C)C(=O)N2CCCCC2)c(=O)c2c(C)c(-c3ncco3)sc21)OC(C)C [Compound I-016] | 0.4 mg/L (≈ 0.653 µM) | 0.4 mg/L (≈ 0.653 µM) | 0.08 mg/L (≈ 0.131 µM) | > 10 mg/L | 0.4 mg/L (≈ 0.653 µM) | 2 mg/L (≈ 3.26 µM) | 0.4 mg/L (≈ 0.653 µM) | > 50 mg/L | – | – | – | – | – | – | – | – | –
COCCO[C@@H](Cn1c(=O)n(C(C)(C)C(=O)NC(C)C)c(=O)c2c(C)c(-n3cccn3)sc21)c1cc(F)ccc1OC [Compound I-163] | – | – | – | – | – | – | – | – | 10 mg/L (≈ 16.6 µM) | ≥ 10 mg/L | 2 mg/L (≈ 3.32 µM) | > 50 mg/L | 10 mg/L (≈ 16.6 µM) | 50 mg/L (≈ 83.1 µM) | 2 mg/L (≈ 3.32 µM) | > 50 mg/L | –
COc1ccc(F)cc1[C@H](Cn1c(=O)n([C@H](C)C(N)=O)c(=O)c2c(C)c(-n3nccn3)sc21)OCCC#N [Compound I-200] | – | – | – | – | – | – | – | – | 2 mg/L (≈ 3.69 µM) | > 50 mg/L | 2 mg/L (≈ 3.69 µM) | > 50 mg/L | 2 mg/L (≈ 3.69 µM) | > 50 mg/L | 2 mg/L (≈ 3.69 µM) | > 50 mg/L | –
COc1ccccc1[C@@H](O)Cn1c(=O)n(C(C)(C)C(=O)N2CCCC2)c(=O)c2c(C)c(-n3nccn3)sc21 [Compound I-215] | – | – | – | – | – | – | – | – | – | – | – | – | – | – | – | – | IC90 ([1]; concentration sufficient to ≥90% inhibition of growth, 48 hours vs 2% DMSO control, read-out: Compound Concentration (ppm) for ≥90% inhibition, Bc): 10 mg/L (≈ 18.6 µM); IC90 ([2]; concentration sufficient to ≥90% inhibition of growth, 48 hours vs 2% DMSO control, read-out: Compound Concentration (ppm) for ≥90% inhibition, Dm): > 50 mg/L; IC90 ([3]; concentration sufficient to ≥90% inhibition of growth, 48 hours vs 2% DMSO control, read-out: Compound Concentration (ppm) for ≥90% inhibition, Fm): 10 mg/L (≈ 18.6 µM); IC90 ([4]; concentration sufficient to ≥90% inhibition of growth, 48 hours vs 2% DMSO control, read-out: Compound Concentration (ppm) for ≥90% inhibition, St): > 50 mg/L; IC90 ([5]; concentration sufficient to ≥90% inhibition of growth, 48 hours vs 2% DMSO control, read-out: Compound Concentration (ppm) for ≥90% inhibition, Rs): 0.08 mg/L (≈ 0.149 µM); IC90 ([6]; concentration sufficient to ≥90% inhibition of growth, 48 hours vs 2% DMSO control, read-out: Compound Concentration (ppm) for ≥90% inhibition, Cg): 50 mg/L (≈ 92.8 µM); IC90 ([7]; concentration sufficient to ≥90% inhibition of growth, 48 hours vs 2% DMSO control, read-out: Compound Concentration (ppm) for ≥90% inhibition, Fv): 10 mg/L (≈ 18.6 µM); IC90 ([8]; concentration sufficient to ≥90% inhibition of growth, 48 hours vs 2% DMSO control, read-out: Compound Concentration (ppm) for ≥90% inhibition, Pc): > 50 mg/L
